Read-outs that look alike come from different tables or passages of the source.
Tests used:
[1] = system: 60 cancer cell lines (NCI 60 cancer cell line series); conditions: cited from earlier work
[2] = system: 60 cancer cell lines (NCI 60 cancer cell line series); assay: NCI-DTP in vitro cancer screen, sulforhodamine B (SRB) growth inhibition, 48 hour exposure; type: cell-based, human; set-up: key to sensitivity class Ovarian OVCAR-8 CL6005 / sensitivity class Ovarian SK-OV-3 CL6011 / sensitivity class Prostate DU-145 CL11003 / sensitivity class NSCLC NCI-H522 CL1003 / sensitivity class Ovarian IGROV1 CL6010 / sensitivity class Ovarian OVCAR-4 CL6002 / sensitivity class Prostate PC-3(I) CL11001 / sensitivity class Renal A498 CL9013 / sensitivity class Renal SN12C CL9008: sensitivity class: 1 = Low, 2 = Medium, 3 = High
Method in brief: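 Sixty NCI-DTP cancer lines plated at line-specific densities, dosed on day 1 in duplicate with 5 concentrations at ten-fold intervals. After 48 h exposure, cell mass read by SRB staining; GI50 (50% growth inhibition) taken from dose-response curves and expressed as -log GI50.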

COc1cc([C@@H]2c3cc4c(cc3[C@@H](O[C@@H]3O[C@@H]5CO[C@@H](c6cccs6)O[C@H]5[C@H](O)[C@H]3O)[C@H]3COC(=O)[C@H]23)OCO4)cc(OC)c1O [Teniposide]
-Log (GI50) ([1]; Breast BT-549 (CL5013)): 6.2
-Log (GI50) ([1]; Breast HS-578T CL5006): 6.4
-Log (GI50) ([1]; Breast MCF7(I) (CL5001)): 7.4
-Log (GI50) ([1]; Breast MCF7/ADRr (CL5002)): 4.6
-Log (GI50) ([1]; Breast MDA-MB-231 CL5005): 6.0
-Log (GI50) ([1]; Breast MDA-MB-435 (CL5011)): 5.9
-Log (GI50) ([1]; Breast MDA-N CL5012): 6.0
-Log (GI50) ([1]; Breast T-47D (CL5014)): 6.8
-Log (GI50) ([1]; CNS SF-268 CL12014): 6.3
-Log (GI50) ([1]; CNS SF-295 CL12015): 6.8
-Log (GI50) ([1]; CNS SF-539 CL12016): 6.7
-Log (GI50) ([1]; CNS SNB-19 (CL12002)): 6.5
-Log (GI50) ([1]; CNS SNB-75(I) CL12005): 6.3
-Log (GI50) ([1]; CNS U251(I) CL12009): 6.8
-Log (GI50) ([1]; Colon COLO-250 CL4010): 6.3
-Log (GI50) ([1]; Colon HCC-2998 (CL4002)): 6.2
-Log (GI50) ([1]; Colon HCT-15 CL4015): 5.8
-Log (GI50) ([1]; Colon HCT-116 (CL4003)): 6.1
-Log (GI50) ([1]; Colon HT29(I) CL4001): 5.8
-Log (GI50) ([1]; Colon KM12 (CL4017)): 6.1
-Log (GI50) ([1]; Colon SW-620 (CL4009)): 6.6
-Log (GI50) ([1]; Leukemia CCRF-CEM(I) (CL7003)): 7.3
-Log (GI50) ([1]; Leukemia HL-60(I) (CL7008)): 7.3
-Log (GI50) ([1]; Leukemia K562(I) CL7005): 6.1
-Log (GI50) ([1]; Leukemia MOLT-4 (CL7006)): 7.8
-Log (GI50) ([1]; Leukemia RPMI-8226(I) (CL7010)): 6.8
-Log (GI50) ([1]; Leukemia SR CL7019): 7.9
-Log (GI50) ([1]; Melanoma LOX IMVI CL10001): 6.7
-Log (GI50) ([1]; Melanoma M14 (CL10014)): 6.2
-Log (GI50) ([1]; Melanoma MALME-3M CL10002): 6.2
-Log (GI50) ([1]; NCSLC NCI-H522 CL1003): 6.3
-Log (GI50) ([1]; NSCLC NCI-H23(I) CL1001): 6.4
-Log (GI50) ([1]; NSCLC NCI-H332M CL1017): 5.5
-Log (GI50) ([1]; NSCLC NCI-H460 CL1021): 7.8
-Log (GI50) ([1]; Ovarian IGROV1 CL6010): 5.8
-Log (GI50) ([1]; Ovarian OVCAR-3 CL6001): 5.8
-Log (GI50) ([1]; Ovarian OVCAR-4 CL6002): 5.3
-Log (GI50) ([1]; Ovarian OVCAR-5 CL6003): 5.8
-Log (GI50) ([1]; Ovarian OVCAR-8 CL6005): 6.3
-Log (GI50) ([1]; Ovarian SK-OV-3 CL6011): 6.4
-Log (GI50) ([1]; Prostate DU-145 CL11003): 6.5
-Log (GI50) ([1]; Prostate PC-3(I) CL11001): 6.0
-Log (GI50) ([1]; Renal 786-O CL9018): 6.5
-Log (GI50) ([1]; Renal A498 CL9013): 6.4
-Log (GI50) ([1]; Renal ACHN CL9023): 6.8
-Log (GI50) ([1]; Renal CAKI-1 CL9015): 7.1
-Log (GI50) ([1]; Renal RXF-393 CL9016): 6.3
-Log (GI50) ([1]; Renal SN12C CL9008): 6.5
-Log (GI50) ([1]; Renal TK10 CL9024): 5.8
-Log (GI50) ([1]; Renal UO-31 CL9004): 5.4
classification of cell line as Low(1), Medium(2) or High(3) sensitivity to compound ([2]; Breast BT-549 (CL5013)): 2
classification of cell line as Low(1), Medium(2) or High(3) sensitivity to compound ([2]; Breast HS-578T CL5006): 2
classification of cell line as Low(1), Medium(2) or High(3) sensitivity to compound ([2]; Breast MCF7(I) (CL5001)): 3
classification of cell line as Low(1), Medium(2) or High(3) sensitivity to compound ([2]; Breast MCF7/ADRr (CL5002)): 1
classification of cell line as Low(1), Medium(2) or High(3) sensitivity to compound ([2]; Breast MDA-MB-231 CL5005): 2
classification of cell line as Low(1), Medium(2) or High(3) sensitivity to compound ([2]; Breast MDA-MB-435 (CL5011)): 2
classification of cell line as Low(1), Medium(2) or High(3) sensitivity to compound ([2]; Breast MDA-N CL5012): 2
classification of cell line as Low(1), Medium(2) or High(3) sensitivity to compound ([2]; Breast T-47D (CL5014)): 2
classification of cell line as Low(1), Medium(2) or High(3) sensitivity to compound ([2]; CNS SF-268 CL12014): 2
classification of cell line as Low(1), Medium(2) or High(3) sensitivity to compound ([2]; CNS SF-295 CL12015): 2
classification of cell line as Low(1), Medium(2) or High(3) sensitivity to compound ([2]; CNS SF-539 CL12016): 2
classification of cell line as Low(1), Medium(2) or High(3) sensitivity to compound ([2]; CNS SNB-19 (CL12002)): 2
classification of cell line as Low(1), Medium(2) or High(3) sensitivity to compound ([2]; CNS SNB-75(I) CL12005): 2
classification of cell line as Low(1), Medium(2) or High(3) sensitivity to compound ([2]; CNS U251(I) CL12009): 2
classification of cell line as Low(1), Medium(2) or High(3) sensitivity to compound ([2]; Colon COLO-250 CL4010): 2
classification of cell line as Low(1), Medium(2) or High(3) sensitivity to compound ([2]; Colon HCC-2998 (CL4002)): 2
classification of cell line as Low(1), Medium(2) or High(3) sensitivity to compound ([2]; Colon HCT-15 CL4015): 2
classification of cell line as Low(1), Medium(2) or High(3) sensitivity to compound ([2]; Colon HCT-116 (CL4003)): 2
classification of cell line as Low(1), Medium(2) or High(3) sensitivity to compound ([2]; Colon HT29(I) CL4001): 2
classification of cell line as Low(1), Medium(2) or High(3) sensitivity to compound ([2]; Colon KM12 (CL4017)): 2
classification of cell line as Low(1), Medium(2) or High(3) sensitivity to compound ([2]; Colon SW-620 (CL4009)): 2
classification of cell line as Low(1), Medium(2) or High(3) sensitivity to compound ([2]; Leukemia CCRF-CEM(I) (CL7003)): 3
classification of cell line as Low(1), Medium(2) or High(3) sensitivity to compound ([2]; Leukemia HL-60(I) (CL7008)): 3
classification of cell line as Low(1), Medium(2) or High(3) sensitivity to compound ([2]; Leukemia K562(I) CL7005): 2
classification of cell line as Low(1), Medium(2) or High(3) sensitivity to compound ([2]; Leukemia MOLT-4 (CL7006)): 3
classification of cell line as Low(1), Medium(2) or High(3) sensitivity to compound ([2]; Leukemia RPMI-8226(I) (CL7010)): 2
classification of cell line as Low(1), Medium(2) or High(3) sensitivity to compound ([2]; Leukemia SR CL7019): 3
classification of cell line as Low(1), Medium(2) or High(3) sensitivity to compound ([2]; Melanoma LOX IMVI CL10001): 2
classification of cell line as Low(1), Medium(2) or High(3) sensitivity to compound ([2]; Melanoma M14 (CL10014)): 2
classification of cell line as Low(1), Medium(2) or High(3) sensitivity to compound ([2]; Melanoma MALME-3M CL10002): 2
sensitivity class NSCLC NCI-H23(I) CL1001 ([2]; cell line NSCLC NCI-H23(I), CL1001): 2
sensitivity class NSCLC NCI-H332M CL1017 ([2]; cell line NSCLC NCI-H332M, CL1017): 1
sensitivity class NSCLC NCI-H460 CL1021 ([2]; cell line NSCLC NCI-H460, CL1021): 3
sensitivity class NSCLC NCI-H522 CL1003 ([2]; cell line NSCLC NCI-H522, CL1003): 2
sensitivity class Ovarian IGROV1 CL6010 ([2]; cell line Ovarian IGROV1, CL6010): 2
sensitivity class Ovarian OVCAR-3 CL6001 ([2]; cell line Ovarian OVCAR-3, CL6001): 2
sensitivity class Ovarian OVCAR-4 CL6002 ([2]; cell line Ovarian OVCAR-4, CL6002): 1
sensitivity class Ovarian OVCAR-5 CL6003 ([2]; cell line Ovarian OVCAR-5, CL6003): 2
sensitivity class Ovarian OVCAR-8 CL6005 ([2]; cell line Ovarian OVCAR-8, CL6005): 2
sensitivity class Ovarian SK-OV-3 CL6011 ([2]; cell line Ovarian SK-OV-3, CL6011): 2
sensitivity class Prostate DU-145 CL11003 ([2]; cell line Prostate DU-145, CL11003): 2
sensitivity class Prostate PC-3(I) CL11001 ([2]; cell line Prostate PC-3(I), CL11001): 2
sensitivity class Renal 786-O CL9018 ([2]; cell line Renal 786-O, CL9018): 2
sensitivity class Renal A498 CL9013 ([2]; cell line Renal A498, CL9013): 2
sensitivity class Renal ACHN CL9023 ([2]; cell line Renal ACHN, CL9023): 2
sensitivity class Renal CAKI-1 CL9015 ([2]; cell line Renal CAKI-1, CL9015): 3
sensitivity class Renal RXF-393 CL9016 ([2]; cell line Renal RXF-393, CL9016): 2
sensitivity class Renal SN12C CL9008 ([2]; cell line Renal SN12C, CL9008): 2
sensitivity class Renal TK10 CL9024 ([2]; cell line Renal TK10, CL9024): 2
sensitivity class Renal UO-31 CL9004 ([2]; cell line Renal UO-31, CL9004): 1
